Test results as given in ChEMBL document CHEMBL4507303, “Data for DCP probe TP-004” (2021).

Key:
[1] = system: Tyrosine-protein kinase ABL1 (Homo sapiens), P00519 [F317I]; conditions: Compound concentration 1000.0 nM
[2] = biological target: Dual specificity protein kinase CLK2 (Homo sapiens) (UniProt P49760); conditions: Compound concentration 1000.0 nM
[3] = biological target: Eukaryotic translation initiation factor 2-alpha kinase 1 (Homo sapiens) (UniProt Q9BQI3); conditions: Compound concentration 1000.0 nM
[4] = biological target: Receptor tyrosine-protein kinase erbB-2 (Homo sapiens) (UniProt P04626); conditions: Compound concentration 1000.0 nM
[5] = biological target: Mitogen-activated protein kinase kinase kinase kinase 1 (Homo sapiens) (UniProt Q92918); conditions: Compound concentration 1000.0 nM
[6] = biological target: Tyrosine-protein kinase JAK1 (Homo sapiens) (UniProt P23458); conditions: Compound concentration 1000.0 nM
[7] = biological target: Dual specificity mitogen-activated protein kinase kinase 6 (Homo sapiens) (UniProt P52564); conditions: Compound concentration 1000.0 nM
[8] = biological target: Serine/threonine-protein kinase 38 (Homo sapiens) (UniProt Q15208); conditions: Compound concentration 1000.0 nM
[9] = biological target: Serine/threonine-protein kinase 38-like (Homo sapiens) (UniProt Q9Y2H1); conditions: Compound concentration 1000.0 nM
[10] = biological target: Serine/threonine-protein kinase D3 (Homo sapiens) (UniProt O94806); conditions: Compound concentration 1000.0 nM
[11] = biological target: Serine/threonine-protein kinase RIO2 (Homo sapiens) (UniProt Q9BVS4); conditions: Compound concentration 1000.0 nM
[12] = biological target: Receptor-interacting serine/threonine-protein kinase 2 (Homo sapiens) (UniProt O43353); conditions: Compound concentration 1000.0 nM
[13] = biological target: Ribosomal protein S6 kinase alpha-1 (Homo sapiens) (UniProt Q15418); conditions: Compound concentration 1000.0 nM
[14] = biological target: Non-receptor tyrosine-protein kinase TYK2 (Homo sapiens) (UniProt P29597); conditions: Compound concentration 1000.0 nM
[15] = biological target: 5-hydroxytryptamine receptor 1D (Homo sapiens) (UniProt P28221); conditions: Compound concentration 10.0 uM
[16] = biological target: D(1A) dopamine receptor (Homo sapiens) (UniProt P21728); conditions: Compound concentration 10.0 uM
[17] = biological target: Sodium-dependent noradrenaline transporter (Homo sapiens) (UniProt P23975); conditions: Compound concentration 10.0 uM
[18] = biological target: Muscarinic acetylcholine receptor M4 (Homo sapiens) (UniProt P08173); conditions: Compound concentration 10.0 uM
Sequence of Muscarinic acetylcholine receptor M4 (Homo sapiens) (P08173 whole entry): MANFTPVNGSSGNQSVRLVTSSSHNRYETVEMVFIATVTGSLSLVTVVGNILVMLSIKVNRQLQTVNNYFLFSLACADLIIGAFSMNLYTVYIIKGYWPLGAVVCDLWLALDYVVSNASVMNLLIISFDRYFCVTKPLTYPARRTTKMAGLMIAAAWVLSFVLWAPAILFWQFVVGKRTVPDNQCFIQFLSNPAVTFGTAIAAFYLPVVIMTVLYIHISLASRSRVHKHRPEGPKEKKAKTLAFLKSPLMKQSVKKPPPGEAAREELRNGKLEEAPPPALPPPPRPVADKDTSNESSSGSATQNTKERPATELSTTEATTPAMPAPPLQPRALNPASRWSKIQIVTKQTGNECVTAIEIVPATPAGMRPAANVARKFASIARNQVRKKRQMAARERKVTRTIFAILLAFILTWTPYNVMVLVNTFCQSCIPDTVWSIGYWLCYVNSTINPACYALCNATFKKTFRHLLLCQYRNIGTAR

Sequence of Sodium-dependent noradrenaline transporter (Homo sapiens) (P23975 whole entry): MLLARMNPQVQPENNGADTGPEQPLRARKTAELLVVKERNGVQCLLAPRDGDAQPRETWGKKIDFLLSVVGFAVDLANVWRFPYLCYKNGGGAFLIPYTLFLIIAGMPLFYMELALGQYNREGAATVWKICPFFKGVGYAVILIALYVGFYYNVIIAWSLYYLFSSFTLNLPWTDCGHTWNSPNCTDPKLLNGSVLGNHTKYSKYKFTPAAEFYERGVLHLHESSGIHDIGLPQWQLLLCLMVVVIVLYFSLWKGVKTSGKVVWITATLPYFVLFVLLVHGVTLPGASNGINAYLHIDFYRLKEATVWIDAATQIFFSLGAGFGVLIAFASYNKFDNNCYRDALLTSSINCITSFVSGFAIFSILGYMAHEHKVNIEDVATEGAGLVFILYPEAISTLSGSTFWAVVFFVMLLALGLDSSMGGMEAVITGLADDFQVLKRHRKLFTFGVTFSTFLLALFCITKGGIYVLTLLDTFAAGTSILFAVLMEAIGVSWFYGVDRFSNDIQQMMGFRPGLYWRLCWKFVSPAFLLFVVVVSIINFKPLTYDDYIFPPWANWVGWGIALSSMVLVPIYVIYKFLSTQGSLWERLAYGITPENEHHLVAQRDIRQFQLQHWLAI
Sequence of Dual specificity protein kinase CLK2 (Homo sapiens) (P49760 whole entry, looked up): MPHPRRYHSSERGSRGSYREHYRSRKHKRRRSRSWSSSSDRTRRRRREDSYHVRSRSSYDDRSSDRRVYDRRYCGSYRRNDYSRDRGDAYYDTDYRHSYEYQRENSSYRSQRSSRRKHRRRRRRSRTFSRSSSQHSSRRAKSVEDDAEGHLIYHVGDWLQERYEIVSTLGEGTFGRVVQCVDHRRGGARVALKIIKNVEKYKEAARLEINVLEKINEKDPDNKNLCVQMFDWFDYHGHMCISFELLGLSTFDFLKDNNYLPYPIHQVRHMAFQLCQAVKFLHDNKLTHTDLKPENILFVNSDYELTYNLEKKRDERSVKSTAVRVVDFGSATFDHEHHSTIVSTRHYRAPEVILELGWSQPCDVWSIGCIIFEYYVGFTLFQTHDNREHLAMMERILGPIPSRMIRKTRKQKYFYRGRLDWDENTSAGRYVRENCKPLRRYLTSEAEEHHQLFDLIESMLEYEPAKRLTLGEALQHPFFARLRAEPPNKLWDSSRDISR
Sequence of Serine/threonine-protein kinase 38-like (Homo sapiens) (Q9Y2H1 2-464 limits assumed): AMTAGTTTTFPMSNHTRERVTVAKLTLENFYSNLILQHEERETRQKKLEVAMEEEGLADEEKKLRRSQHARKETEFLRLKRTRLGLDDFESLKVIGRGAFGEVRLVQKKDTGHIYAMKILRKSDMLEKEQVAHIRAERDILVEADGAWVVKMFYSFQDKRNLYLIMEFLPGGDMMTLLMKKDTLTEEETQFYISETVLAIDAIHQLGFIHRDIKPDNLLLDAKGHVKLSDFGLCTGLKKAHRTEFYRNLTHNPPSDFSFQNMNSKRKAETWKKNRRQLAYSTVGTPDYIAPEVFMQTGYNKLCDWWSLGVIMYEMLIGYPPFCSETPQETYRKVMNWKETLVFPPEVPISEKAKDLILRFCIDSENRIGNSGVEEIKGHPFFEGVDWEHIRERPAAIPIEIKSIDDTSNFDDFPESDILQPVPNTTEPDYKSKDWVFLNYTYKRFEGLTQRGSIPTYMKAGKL
Sequence of Receptor-interacting serine/threonine-protein kinase 2 (Homo sapiens) (O43353 whole entry): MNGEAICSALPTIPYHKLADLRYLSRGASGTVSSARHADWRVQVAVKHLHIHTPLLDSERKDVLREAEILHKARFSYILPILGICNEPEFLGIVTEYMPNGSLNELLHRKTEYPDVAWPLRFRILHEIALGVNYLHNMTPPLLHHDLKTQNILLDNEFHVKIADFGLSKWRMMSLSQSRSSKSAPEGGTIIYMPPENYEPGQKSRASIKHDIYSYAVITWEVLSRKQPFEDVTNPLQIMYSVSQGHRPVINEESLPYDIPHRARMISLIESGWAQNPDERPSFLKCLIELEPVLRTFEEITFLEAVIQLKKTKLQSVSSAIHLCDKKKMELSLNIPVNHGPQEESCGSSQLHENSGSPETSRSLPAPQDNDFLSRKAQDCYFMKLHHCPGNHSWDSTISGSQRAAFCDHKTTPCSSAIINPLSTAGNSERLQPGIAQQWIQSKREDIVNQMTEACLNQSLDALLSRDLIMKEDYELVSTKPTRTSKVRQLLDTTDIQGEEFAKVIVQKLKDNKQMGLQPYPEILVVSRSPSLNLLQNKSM
Sequence of Ribosomal protein S6 kinase alpha-1 (Homo sapiens) (Q15418 whole entry): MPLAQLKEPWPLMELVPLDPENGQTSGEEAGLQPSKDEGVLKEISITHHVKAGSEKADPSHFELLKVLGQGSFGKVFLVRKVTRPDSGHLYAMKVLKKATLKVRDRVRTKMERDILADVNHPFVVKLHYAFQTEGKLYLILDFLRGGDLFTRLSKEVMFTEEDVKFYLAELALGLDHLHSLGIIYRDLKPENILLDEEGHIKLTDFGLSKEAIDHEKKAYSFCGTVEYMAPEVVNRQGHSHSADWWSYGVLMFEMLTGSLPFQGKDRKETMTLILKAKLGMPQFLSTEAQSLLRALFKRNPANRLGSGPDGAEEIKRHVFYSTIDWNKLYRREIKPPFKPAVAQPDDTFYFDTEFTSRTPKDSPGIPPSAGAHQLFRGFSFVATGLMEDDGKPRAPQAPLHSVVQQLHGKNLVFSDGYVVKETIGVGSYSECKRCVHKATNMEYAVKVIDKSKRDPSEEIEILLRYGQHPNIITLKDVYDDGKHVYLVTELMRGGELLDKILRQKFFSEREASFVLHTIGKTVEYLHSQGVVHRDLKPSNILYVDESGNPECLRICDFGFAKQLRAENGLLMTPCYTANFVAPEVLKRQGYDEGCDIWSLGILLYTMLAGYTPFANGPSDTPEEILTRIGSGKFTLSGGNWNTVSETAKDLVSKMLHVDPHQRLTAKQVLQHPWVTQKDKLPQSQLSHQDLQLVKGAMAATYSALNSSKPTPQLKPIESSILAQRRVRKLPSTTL
Sequence of Dual specificity mitogen-activated protein kinase kinase 6 (Homo sapiens) (P52564 whole entry): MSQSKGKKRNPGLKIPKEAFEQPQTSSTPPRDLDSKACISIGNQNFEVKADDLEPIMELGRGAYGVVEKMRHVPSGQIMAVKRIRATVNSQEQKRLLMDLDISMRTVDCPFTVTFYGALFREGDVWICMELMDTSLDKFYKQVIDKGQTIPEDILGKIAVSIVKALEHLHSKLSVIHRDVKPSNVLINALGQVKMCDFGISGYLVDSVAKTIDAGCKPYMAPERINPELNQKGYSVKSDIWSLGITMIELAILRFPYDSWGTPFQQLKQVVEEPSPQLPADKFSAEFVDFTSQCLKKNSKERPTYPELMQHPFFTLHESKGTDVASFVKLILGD
Sequence of Serine/threonine-protein kinase D3 (Homo sapiens) (O94806 whole entry): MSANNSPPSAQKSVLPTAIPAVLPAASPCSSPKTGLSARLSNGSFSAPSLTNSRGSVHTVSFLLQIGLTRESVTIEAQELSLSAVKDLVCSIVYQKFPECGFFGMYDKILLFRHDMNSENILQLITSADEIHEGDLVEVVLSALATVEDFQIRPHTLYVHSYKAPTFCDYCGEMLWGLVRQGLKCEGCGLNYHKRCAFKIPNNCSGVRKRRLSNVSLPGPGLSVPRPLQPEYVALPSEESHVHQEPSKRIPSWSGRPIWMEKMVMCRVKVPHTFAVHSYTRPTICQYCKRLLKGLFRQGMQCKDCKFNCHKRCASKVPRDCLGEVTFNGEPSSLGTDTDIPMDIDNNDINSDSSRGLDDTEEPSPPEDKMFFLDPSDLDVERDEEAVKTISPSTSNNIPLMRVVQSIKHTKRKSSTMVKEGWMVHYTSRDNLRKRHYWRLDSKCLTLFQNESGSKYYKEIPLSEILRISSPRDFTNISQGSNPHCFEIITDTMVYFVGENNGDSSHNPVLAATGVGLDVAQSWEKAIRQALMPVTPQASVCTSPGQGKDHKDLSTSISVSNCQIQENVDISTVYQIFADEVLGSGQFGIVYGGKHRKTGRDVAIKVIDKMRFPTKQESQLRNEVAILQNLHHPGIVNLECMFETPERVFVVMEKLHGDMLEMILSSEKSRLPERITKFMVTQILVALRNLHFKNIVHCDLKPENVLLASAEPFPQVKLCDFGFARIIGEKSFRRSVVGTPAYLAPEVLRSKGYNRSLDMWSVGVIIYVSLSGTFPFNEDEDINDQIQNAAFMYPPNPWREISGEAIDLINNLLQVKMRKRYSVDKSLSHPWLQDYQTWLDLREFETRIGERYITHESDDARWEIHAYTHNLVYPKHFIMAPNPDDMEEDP
Sequence of Serine/threonine-protein kinase 38 (Homo sapiens) (Q15208 2-465 limits assumed): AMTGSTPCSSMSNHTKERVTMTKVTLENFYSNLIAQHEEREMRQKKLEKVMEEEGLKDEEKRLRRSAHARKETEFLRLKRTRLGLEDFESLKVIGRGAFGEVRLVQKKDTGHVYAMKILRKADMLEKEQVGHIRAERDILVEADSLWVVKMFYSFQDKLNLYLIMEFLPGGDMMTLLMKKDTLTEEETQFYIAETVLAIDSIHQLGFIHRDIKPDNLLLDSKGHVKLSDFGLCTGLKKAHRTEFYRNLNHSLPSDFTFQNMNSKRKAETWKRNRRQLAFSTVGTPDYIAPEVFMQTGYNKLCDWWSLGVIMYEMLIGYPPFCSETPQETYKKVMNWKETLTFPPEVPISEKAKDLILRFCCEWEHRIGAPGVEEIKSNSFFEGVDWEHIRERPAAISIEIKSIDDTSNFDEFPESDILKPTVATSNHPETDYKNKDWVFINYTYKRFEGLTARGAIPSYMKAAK

Cc1nc(N2CC[C@@H](O)C2)ncc1-c1cc(C(F)(F)F)cc2[nH]ncc12 [TP-004]
inactive: residual activity [1] 73% | residual activity [2] 100% | residual activity [3] 98% | residual activity [4] 87% | residual activity [5] 100% | residual activity [6] 78% | residual activity [7] 100% | residual activity [8] 95% | residual activity [9] 87% | residual activity [10] 100% | residual activity [11] 100% | residual activity [12] 95% | residual activity [13] 91% | residual activity [14] 70% | inhibition [15] -8.55% | inhibition [16] 11.1% | inhibition [17] 36.9% | inhibition [18] 5.7%
